Measured values: patent publication US20060058243A1, “Methods and compositions for treating diabetes mellitis” (priority 2002, published 2006)

Experiments:
[1] = system: 3T3-L1 adipocytes; assay: Glucose transport stimulatory (GTS) activity, 2-deoxy-D-[3H]glucose uptake; format: cell-based; conditions: 3T3-L1 adipocytes, FIG. 2
Protocol: (§1) PGG, either as a mixture or as single isomer (α or β), is added to either adipocytes (A) or preadipocytes (B). GTS activity (A) and AD activity (B) of PGG are measured by ^3H-glucose uptake. GLUT4 is not expressed in preadipocytes, so glucose uptake can be used as an indirect measurement of adipocyte differentiation.
Glucose uptake activity in cells may be analyzed by measuring the uptake of 2-deoxy-D-[^3H] glucose using a standard assay. Confluent 3T3-L1 adipocytes grown in 12-well plates are washed twice with serum-free DMEM and incubated with 1 mL of the same medium at 37° C. for 2 h. The cells are washed 3 times with Krebs-Ringer-Hepes (KRP) buffer and incubated with 0.9 mL KRP buffer at 37° C. for 30 min. […] Glucose uptake is initiated by addition of 0.1 mL KRP buffer and 37 MBq/L 2-deoxy-D-[^3H] glucose and 1 mmol/L glucose as final concentrations. After 10 min, glucose uptake is terminated by washing the cells 3 times with cold PBS. The cells are lysed with 0.7 mL of 1% Triton X-100 at 37° C. for 20 min. The radioactivity retained by the cell lysates is determined by a scintillation counter. The dosage that induces the maximal glucose uptake can be selected among the experimental samples.
3T3-L1 adipocytes were purchased from ATCC, and maintained and passed as preadipocytes in DMEM supplemented with 10% calf serum in a 37° C. incubator with 10% CO2 as required by the cells. The cells were induced to differentiate into adipocytes by addition of MDI induction cocktail as described in Liu, F., Kim, J., Li, Y., Liu, X., Li, J. & Chen, X. (2001) An extract of Lagerstroemia speciosa L. has insulin-like glucose uptake-stimulatory and adipocyte differentiation-inhibitory activities in 3T3-L1 cells. J. Nutrition 131:2242-224, which is specifically incorporated herein by reference. Varying amounts of α-PGG and β-PGG were then added to the medium and the amount of glucose taken up by control and treated cells determined using a standard glucose uptake assay, as described in Liu et al. As shown in FIG. 2A chemically synthesized and plant derived β-PGG have similar glucose transport stimulatory (GTS). The GTS activity of α-PGG is consistently 10-20% higher than that of β-PGG (FIG. 2).
Confluent 3T3-L1 adipocytes grown in 12-well plates were washed twice with serum-free DMEM and incubated with 1 mL of the same medium at 37° C. for 2 h. The cells were washed 3 times with Krebs-Ringer-Hepes (KRP) buffer and incubated with 0.9 mL KRP buffer at 37° C. for 30 min. Compounds listed in the table below were then added at 20-40 μM (final concentration?) and adipocytes were incubated at 37° C. for 15 min. Glucose uptake was initiated by addition of 0.1 mL KRP buffer and 37 MBq/L 2-deoxy-D-[3H] glucose and 1 mmol/L glucose as final concentrations. After 10 min, glucose uptake was terminated by washing the cells 3 times with cold PBS. The cells were lysed with 0.7 mL of 1% Triton X-100 at 37° C. for 20 min. The radioactivity retained by the cell lysates is determined by a scintillation counter.

[2] = system: db/db mice; assay: Blood glucose in fasting diabetic db/db mice after oral dose; format: in vivo; conditions: single oral dose 25 mg/kg body weight, versus vehicle, P<0.01, FIG. 11A
Protocol: (§2) FIG. 11. Effect of PGG on blood glucose levels in db/db and ob/ob mice. Various doses of α-PGG were orally delivered without glucose to db/db mice(A) or with glucose to ob/ob mice (B) mice. At different times post the delivery, glucose was determined in samples from tail blood.
Male db/db (leptin receptor deficient) mice of 8 weeks of age may be used to determine in vivo dosages for simulating glucose uptake The mice are divided into three to four groups depending upon how many dosages are analyzed. Ten μl of a test solution with pre-determined concentrations of the test gallotannin composition is orally administered to the test mice. The negative control mice receive the same amount of water. After the administration, blood is collected from the mouse tail at various times post oral administration. The blood glucose level of a mouse at a given time post administration is measured by applying six μl of blood on a One Touch Basic Complete Diabetes Monitoring System (from Lifescan). The effective dosage range and the optimal dosage can be determined by comparison of the reduction of blood glucose levels by different dosages relative to the glucose level of the negative (water) control group.
The reduction of the glucose level is about 15-20% depending on the time post α-pGG administration (P<0.01, FIG. 11A).

[3] = system: ob/ob mice; assay: Glucose tolerance test in ob/ob mice; format: in vivo
Protocol: as §2
FIG. 12. PGG protects ob/ob mice from hyperglycemia immediately after glucose challenge and hypoglycemia several days after the challenge. At various time points after the glucose challenge, blood glucose levels were measured in tail blood.
To determine if α-PGG is also effective in improving glucose tolerance in diabetic and obese mice, a glucose tolerance test was performed using ob/ob mice. Glucose or glucose plus α-PGG were orally delivered into male ob/ob mice, and blood glucose levels were measured at various times post glucose/PGG administration.
A single high does of glucose in ob/ob mice can be fatal, either because of the very high levels of blood glucose levels […] after the glucose challenge or because of the abnormally low glucose levels 2-3 days after the glucose challenge. […] Although the protection mechanisms are unknown at this time, it is very likely that α-PGG protected the ob/ob mice not only by its GTS activity, but also some other activity such as AD-related activity.

[4] = system: 3T3-L1 preadipocytes; assay: Clonal expansion / cell proliferation assay by LDH activity; format: cell-based
Protocol: Preadipocytes were induced to undergo clonal expansion by MDI, or α-PGG, or β-PGG in the presence of MDI. 24 or 48 hrs after induction, the media was removed and the cells were lysed. The […] (LDH) activity of the cell lysates was measured by LDH kit. Cell growth media were also collected and their LDH activity from dead cells was also measured (not shown on this graph). LDH activity is a constant per cell in a given cell type, the LDH activity measured is proportional to the number of cells in the samples.
A cell proliferation assay was used to determine if PGG inhibits adipocyte differentiation by blocking clonal expansion. […] The basis for the difference between the anomers in clonal expansion and differentiation is not known.

[5] = system: 3T3-L1 preadipocytes; assay: Adipocyte differentiation (AD) of preadipocytes, MDI induction, Oil Red O staining and glucose uptake; format: cell-based; conditions: about 10 days, 30 μM PGG, FIG. 8
Protocol: as §1
Ten days after induction, the cells were stained with Oil Red 0 and photographed at magnification X200. Only those cells that contain fat vesicles (triglyceride) can be stained.
After about 10 days MDI induces differentiation, which is clearly visible as the change from fibroblast-like preadipcytes to round-shaped, fat vesicle-containing adipocytes.
3T3-L1 adipocytes were purchased from ATCC, and maintained and passed as preadipocytes in DMEM supplemented with 10% calf serum in a 37° C. incubator with 10% CO2 as required by the cells. To test the effect of PGG on adipogenesis, the preadipocytes were incubated either with a differentiation-induction cocktail comprised of 3-isobutyl-1-methylxanthine, […], a cocktail comprised of 3-isobutyl-1-methylxanthine, dexamethasone (MD) and PGG; or with MDI plus PGG.
In order to study the mechanism by which PGG inhibits 3T3-L1 preadipocyte differentiation, we used gene expression studies. This strategy allows us to determine whether PGG specifically acts on genes that participate in the differentiation process. […] After about 10 days MDI induces differentiation, which is clearly visible as the change from fibroblast-like preadipcytes to round-shaped, fat vesicle-containing adipocytes (FIG. 8 middle).

[6] = system: ob/ob mice; assay: Plasma insulin levels in ob/ob mice after intraperitoneal injection; format: in vivo; conditions: single intraperitoneal injection
Protocol: Diabetic and obese ob/ob mice were injected intraperitoneally with either water or α-PGG. Plasma from each mouse was isolated at various times post injection and was measured for insulin levels.

[7] = in the presence of MDI, FIG. 10

SMILES: O=C(OC[C@H]1O[C@H](OC(=O)c2cc(O)c(O)c(O)c2)[C@H](OC(=O)c2cc(O)c(O)c(O)c2)[C@@H](OC(=O)c2cc(O)c(O)c(O)c2)[C@@H]1OC(=O)c1cc(O)c(O)c(O)c1)c1cc(O)c(O)c(O)c1 [α-PGG, 1,2,3,4,6-penta-O-galloyl-α-D-glucose]
- GTS activity higher than that of β-PGG [1]: 10-20%
- reduction of the blood glucose level [2]: 15-20%
- protection from extremely low glucose levels after glucose challenge ([3]; 2-5 days after challenge, FIG. 12): protected these mice from suffering extremely low glucose levels
- time after treatment at which improved blood glucose levels could still be observed ([3]; ob/ob mice, oral): ≥ 24 h
- blood glucose levels compared to glucose alone ([3]; oral glucose plus α-PGG, P<0.001, FIG. 11B): significantly lower blood glucose levels
- cell-killing compared to MDI induced cells ([4]; data not shown): without significantly increased cell-killing
- first round of clonal expansion [4, 7]: not inhibited
- second round of clonal expansion [4, 7]: partially inhibited
- differentiation of preadipocytes treated with MDI plus compound [5]: abolishes the differentiation
- plasma insulin levels versus water [6]: significantly lower plasma insulin levels
